Assay results as given in ChEMBL document CHEMBL5634191, “Vinylpyridine as a Tunable Covalent Warhead Targeting C797 in EGFR” (ACS Med Chem Lett, 2024).

test: Lipophilicity, log D of the compound at pH 7.4; type: physicochemical; conditions: buffer

Structure (SMILES) | logD
COC/C=C/c1cc(Oc2cc3c(Nc4cccc(Cl)c4F)ncnc3cc2OC)ccn1 | 4.2
CN(C)C/C=C/C(=O)Nc1cc2c(Nc3ccc(F)c(Cl)c3)ncnc2cc1O[C@H]1CCOC1 [AFATINIB] | 3.6
COc1cc2ncnc(Nc3ccc(F)c(Cl)c3)c2cc1OCCCN1CCOCC1 [GEFITINIB] | 3.8
C=CC(=O)N1CCC(Oc2cc3c(Nc4ccc(Cl)c(Cl)c4F)ncnc3cc2OC)CC1 [POZIOTINIB] | 4.3

Other lines, results leading:

logD | Structure (SMILES)
4.6 | C=Cc1cccc(Oc2cc3c(Nc4cccc(Cl)c4F)ncnc3cc2OC)n1
3.8 | COc1cc2ncnc(Nc3cccc(Cl)c3F)c2cc1Oc1ccnc(/C=C/CN2CCOCC2)c1
4.6 | C=C(C)c1cc(Oc2cc3c(Nc4cccc(Cl)c4F)ncnc3cc2OC)ccn1
4.6 | C=Cc1ccnc(Oc2cc3c(Nc4cccc(Cl)c4F)ncnc3cc2OC)c1
